Assay results: paper PMC8146397 (Nanomaterials, 2021)
Several values for one entry are separate records, joined by “and”; a condition that tells them apart may be missing. Equal values may be shown once.

Columns and labels:
[1] = In vitro dissolution / CIP release at pH 5.0 for 72 h; format: physicochemical
Salmonella typhi strains = assay: Antibacterial activity, CFU count / sterilization rate; format: cell-based; settings: Salmonella typhi 3 × 10^4 cells/ml, 3 h at 37 °C, CFU after 18 h
Protocol: After incubation, solidified LB agar plat was impregnated with 100 μL of the bacterial suspension.

[2] = In vivo pharmacokinetics after oral delivery (HPLC of plasma); settings: mice
Protocol: Healthy mice weighing 30 g were kept in the primate facility with free access to food and water a day before the commencement of the experiment. The mice were divided into two groups (n = 5). […] Blood plasma was stored at −20 °C until further use.

[3] = release kinetic model Ct = C0 + k0t
[4] = release kinetic model Mi/M∞ = Kth + b
[5] = release kinetic model logQ0 + Kit/2.3

SMILES: O=C(O)c1cn(C2CC2)c2cc(N3CCNCC3)c(F)cc2c1=O [CIP, Ciprofloxacin]
- Zero Order K^0 [1, 3]: 32.90
- Zero Order R^2 [1, 3]: 0.5787 ± 2.57
- Korsmeyer-Peppas N (release exponent n) [1, 4]: 0.502
- Korsmeyer-Peppas R2 [1, 4]: 0.9370 ± 4.85
- Higuchi KH ([1]; release kinetic model Q = KH√t): 53.70
- Higuchi R2 ([1]; release kinetic model Q = KH√t): 0.9360 ± 3.57
- First Order K1 [1, 5]: 0.877
- First Order R^2 [1, 5]: 0.9534 ± 1.57
- Sterilizing rate (Salmonella typhi strains): 9 ± 3.25%
- AUMC 0-inf [2]: 900.65 μg/mL × h^2 and 900.65 ± 1.57 μg/mL × h^2
